This passage reports IC50 results from patent US20210198269A1, “INHIBITORS OF GLUCOSE TRANSPORTERS (GLUTs)” (LEAD DISCOVERY CENTER GMBH, priority 2018, published 2021).

Molecules are shown by their SMILES. A value given as a limit tells only on which side of the number the result lay.

A word on the IC50: it is the concentration that gives 50% inhibition.

Common to all, as to assay type: cell-based
One assay deals with T1, GLUT1 (Homo sapiens, UniProt P11166).
T1 construct: host or cells: DLD-1 (DLD1) cells
T1 sequence (P11166 1-492): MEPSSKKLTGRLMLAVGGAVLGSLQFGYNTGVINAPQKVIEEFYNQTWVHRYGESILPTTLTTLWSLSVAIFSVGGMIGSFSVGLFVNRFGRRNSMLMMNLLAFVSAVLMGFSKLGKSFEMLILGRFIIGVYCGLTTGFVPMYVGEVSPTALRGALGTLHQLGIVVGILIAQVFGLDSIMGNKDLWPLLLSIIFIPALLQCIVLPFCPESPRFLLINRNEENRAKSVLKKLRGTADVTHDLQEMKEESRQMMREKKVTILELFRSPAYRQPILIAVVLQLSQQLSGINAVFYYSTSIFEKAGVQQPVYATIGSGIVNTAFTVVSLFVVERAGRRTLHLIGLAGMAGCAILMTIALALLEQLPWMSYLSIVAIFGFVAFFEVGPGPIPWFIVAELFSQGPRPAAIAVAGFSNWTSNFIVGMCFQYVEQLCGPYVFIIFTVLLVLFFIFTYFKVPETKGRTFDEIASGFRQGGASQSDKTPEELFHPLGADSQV
In words: GLUT1 transporter activity assay (2-DG uptake) in DLD1 cells. The conditions noted are these: DLD1 cell line; read-out: GLUT1 inhibitory activity (IC50). From the text: (§1) GLUT 1, 2, 3 and 4 Transporter Activity Assays
(§2) Assays were based on the specificity assays reported by Kapoor et al., Proceedings of the National Academy of Sciences 2016, 113 (17) 4711-4716. For GLUT1, GLUT2, GLUT3 and GLUT4 specificity testing DLD1, CHO-hGLUT2, DLD-1-GLUT1−/− and CHO-hGLUT4 cell lines were used.
(§3) Assay protocols for 2-deoxy-Glucose (2-DG) Uptake Assay with DLD1 or DLD1-Glut1(−/−) cells or 7,000 CHOK1-SLC2A4 cells lines:
(§4) 14,000 DLD1 or DLD1-Glut1(−/−) cells or 7,000 CHOK1-SLC2A4 cells were seeded in black, clear bottom 384-well plates in glucose- and phenolred-free RPMI1640 medium supplemented with 1% FCS and 2 mM L-glutamine and allowed to attach overnight. Next day, cells were washed and incubated with compounds or DMSO and 1 mM 2-DG in glucose- and phenolred-free RPMI1640 medium for 30 min. Cells were then washed and lysed in 0.06 M HCl and 1% CHAPS for 15 min at 65° C. The amount of 2-DG in the lysate was determined by means of enzyme-coupled assay. For this 16 U/mL glucose-6-phosphate dehydrogenase, 0.2 U/mL diaphorase, 0.1 mM NADP^+ and 10 μM resazurin were added to the lysates. Resorufin fluorescence was determined as a measure of 2-DG uptake at ex/em 535/590 nm with a Victor Multilabel plate reader (Perkin Elmer). Blank values were subtracted from all readings and values were normalized to the DMSO control.

Another assay addresses T2, GLUT4 (Homo sapiens, UniProt P14672).
T2 sequence (P14672 1-509): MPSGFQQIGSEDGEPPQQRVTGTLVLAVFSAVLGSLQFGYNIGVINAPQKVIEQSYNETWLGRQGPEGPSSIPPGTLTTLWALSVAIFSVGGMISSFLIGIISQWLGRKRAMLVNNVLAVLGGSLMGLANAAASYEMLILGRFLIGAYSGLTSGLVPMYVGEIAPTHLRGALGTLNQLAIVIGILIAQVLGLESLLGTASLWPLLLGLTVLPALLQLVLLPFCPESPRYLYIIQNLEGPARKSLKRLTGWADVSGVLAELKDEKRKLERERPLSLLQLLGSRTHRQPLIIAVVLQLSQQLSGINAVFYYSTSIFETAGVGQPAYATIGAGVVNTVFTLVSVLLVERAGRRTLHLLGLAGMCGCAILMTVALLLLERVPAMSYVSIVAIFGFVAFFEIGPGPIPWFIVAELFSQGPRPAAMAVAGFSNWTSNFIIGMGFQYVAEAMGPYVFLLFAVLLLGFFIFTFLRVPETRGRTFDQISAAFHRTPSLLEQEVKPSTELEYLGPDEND
The assay can be described thus: GLUT4 transporter activity assay (2-DG uptake) in CHO-hGLUT4 cells. The conditions noted are these: CHO-hGLUT4 cell line; read-out: GLUT4 inhibitory activity (IC50). How it is done:
CHOK1-SLC2A4 cells were generated by transfection of CHOK1 cells with pCMV6-Entry-GLUT4 (Origene #SC125240) using Lipofectamin2000 according to the supplier's instructions. Briefly, 1.5E5 cells/well CHOK1 cells were seeded in 6-well cell culture plates. After overnight incubation, DNA-lipid complexes (2 μg plasmid DNA, DNA:lipid ratio 1:10) were prepared in OptiMEM and then added to the cells. After 5 days incubation, 800 μg G418 was added to the culture medium to generate a stable polyclone. For monoclone selection, single cells were re-plated in 96-well plates, expanded and selected by transgene overexpression and functional performance.
as §1, §2, §3, §4

In a further assay the target is T3, GLUT3 (Homo sapiens, UniProt P11169).
T3 construct: host or cells: DLD-1-GLUT1(-/-) cells
T3 sequence (P11169 1-496): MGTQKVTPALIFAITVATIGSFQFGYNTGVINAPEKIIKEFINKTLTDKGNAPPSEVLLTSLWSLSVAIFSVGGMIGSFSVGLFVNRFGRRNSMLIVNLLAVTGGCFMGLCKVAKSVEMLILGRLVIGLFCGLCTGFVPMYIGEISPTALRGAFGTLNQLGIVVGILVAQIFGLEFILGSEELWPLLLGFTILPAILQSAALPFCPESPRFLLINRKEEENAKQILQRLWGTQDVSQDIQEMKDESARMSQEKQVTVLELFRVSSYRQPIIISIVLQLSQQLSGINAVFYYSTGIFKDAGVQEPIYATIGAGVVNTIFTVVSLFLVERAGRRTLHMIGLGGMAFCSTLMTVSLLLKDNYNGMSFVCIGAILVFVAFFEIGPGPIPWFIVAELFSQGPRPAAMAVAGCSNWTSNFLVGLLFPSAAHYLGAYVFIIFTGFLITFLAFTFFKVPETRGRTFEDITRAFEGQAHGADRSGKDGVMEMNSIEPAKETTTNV
The assay can be described thus: GLUT3 transporter activity assay (2-DG uptake) in DLD-1-GLUT1-/- cells. To be noted: DLD-1-GLUT1-/- cell line; read-out: GLUT3 inhibitory activity (IC50).
Description: as §1, §2, §3, §4

Turning to `Cc1ccc(CCNC(=O)c2cccc(N3C(=O)NC4CC3(C)Oc3c(OCC5CC5)cccc34)c2)cc1` (stereo not drawn) [Compound A08, 3-(10-(Cyclopropylmethoxy)-2-methyl-4-oxo-5,6-dihydro-2H-2,6-methanobenzo[g][1,3,5]oxadiazocin-3(4H)-yl)-N-(4-methylphenethyl)benzamide], the results for the IC50 at GLUT1, on GLUT4 and on GLUT3 were at most 0.3 µM, 1 to 4 µM and 0.3 to 1 µM, respectively.
Take `Cc1ccc(CCNC(=O)c2cccc(N3C(=O)NC4CC3(C)Oc3c(OCc5ccncc5)cccc34)c2)cc1` (stereo not drawn) [Compound A09, 3-(2-Methyl-4-oxo-10-(pyridin-4-ylmethoxy)-5,6-dihydro-2H-2,6-methanobenzo[g][1,3,5]oxadiazocin-3(4H)-yl)-N-(4-methylphenethyl)benzamide]: the IC50 is at most 0.3 µM on GLUT1, 4 to 10 µM on GLUT4 and 0.3 to 1 µM on GLUT3.
In the same order, the values of `Cc1ccc(CCNC(=O)c2cccc(N3C(=O)NC4CC3(C)Oc3c(OCc5cccnc5N)cccc34)c2)cc1` (stereo not drawn) [Compound A12, 3-(10-((2-Aminopyridin-3-yl)methoxy)-2-methyl-4-oxo-5,6-dihydro-2H-2,6-methanobenzo[g][1,3,5]oxadiazocin-3(4H)-yl)-N-(4-methylphenethyl)benzamide] are 1 to 4 µM, over 25 µM and 1 to 4 µM.
As to `Cc1ccc(CCNC(=O)c2cccc(N3C(=O)NC4CC3(C)Oc3c(OCc5cncnc5)cccc34)c2)cc1` (stereo not drawn) [Compound A13, 3-(2-Methyl-4-oxo-10-(pyrimidin-5-ylmethoxy)-5,6-dihydro-2H-2,6-methanobenzo[g][1,3,5]oxadiazocin-3(4H)-yl)-N-(4-methylphenethyl)benzamide], the IC50 at GLUT1 was 0.3 to 1 µM; on GLUT4, over 25 µM; on GLUT3, 0.3 to 1 µM.
`Cc1ccc(CCNC(=O)c2cccc(N3C(=O)NC4CC3(C)Oc3c(OCc5cncc(C)c5)cccc34)c2)cc1` (stereo not drawn) [Compound A14, 3-(2-Methyl-10-((5-methylpyridin-3-yl)methoxy)-4-oxo-5,6-dihydro-2H-2,6-methanobenzo[g][1,3,5]oxadiazocin-3(4H)-yl)-N-(4-methylphenethyl)benzamide]: the IC50 was at most 0.3 µM on GLUT1, 1 to 4 µM at GLUT4 and at most 0.3 µM at GLUT3.
For `CC12CC(NC(=O)N1c1cccc(C(=O)N3CCc4ccccc43)c1)c1cccc(OCc3ccccc3)c1O2` (stereo not drawn) [Compound A19, 10-(benzyloxy)-3-(3-(indoline-1-carbonyl)phenyl)-2-methyl-5,6-dihydro-2H-2,6-methanobenzo[g][1,3,5]oxadiazocin-4(3H)-one], the values for the IC50 at GLUT1, on GLUT4 and at GLUT3 were 10 to 25 µM, over 25 µM and 1 to 4 µM, respectively.
Take `Cc1ccc(CCOC(=O)c2cccc(N3C(=O)NC4CC3(C)Oc3c(OCc5ccccc5)cccc34)c2)cc1` (stereo not drawn) [Compound A22, 4-methylphenethyl 3-(10-(benzyloxy)-2-methyl-4-oxo-5,6-dihydro-2H-2,6-methanobenzo[g][1,3,5]oxadiazocin-3(4H)-yl)benzoate]: the IC50 on GLUT1 is 4 to 10 µM; at GLUT4, over 25 µM; on GLUT3 it was 1 to 4 µM.
In the case of `CC12CC(NC(=O)N1c1cccc(C(=O)NC3Cc4ccccc4C3)c1)c1cccc(OCc3ccccc3)c1O2` (stereo not drawn) [Compound A24, 3-(10-(benzyloxy)-2-methyl-4-oxo-5,6-dihydro-2H-2,6-methanobenzo[g][1,3,5]oxadiazocin-3(4H)-yl)-N-(2,3-dihydro-1H-inden-2-yl)benzamide], the 50% inhibitory concentration (IC50) at GLUT1 was 10 to 25 µM; at GLUT4, 10 to 25 µM; on GLUT3, 4 to 10 µM.
Regarding `CC12CC(NC(=O)N1c1cccc(C(=O)NC3CCc4ccccc4C3)c1)c1cccc(OCc3ccccc3)c1O2` (stereo not drawn) [Compound A26, 3-(10-(benzyloxy)-2-methyl-4-oxo-5,6-dihydro-2H-2,6-methanobenzo[g][1,3,5]oxadiazocin-3(4H)-yl)-N-(1,2,3,4-tetrahydronaphthalen-2-yl)benzamide], the figures for the half-inhibitory concentration (IC50) at GLUT1, on GLUT4 and at GLUT3 were over 25 µM, 10 to 25 µM and 4 to 10 µM, respectively.
